Measurements published in publication PMC10754118, “Lipophilic Nucleoside Triphosphate Prodrugs of Anti‐HIV Active Nucleoside Analogs as Potential Antiviral Compounds” (Advanced Science, 2023).
Read-outs that look alike come from different tables or passages of the source.

What was measured:
[1] = tested on: HIV‐1 [HE]; experiment: Anti-HIV activity, HIV-1 in wild-type CEM/0 cells; assay type: cell-based; conditions: Human immunodeficiency virus 1, CCRF-CEM, read-out: Antiviral activity CEM/0 HIV‐1 [HE] EC50
[2] = tested on: HIV‐2 [ROD]; experiment: Anti-HIV activity, HIV-2 in wild-type CEM/0 cells; assay type: cell-based; conditions: Human immunodeficiency virus 2, CCRF-CEM, read-out: Antiviral activity CEM/0 HIV‐2 [ROD] EC50
Protocol: (§1) Part 9. Anti-HIV activity assay.
(§2) The produce was used as previously reported. 5 Inhibition of HIV-1(IIIB)- and HIV-2(ROD)-induced cytopathogenicity in wild-type CEM/0 and thymidine kinase-deficient CEM/TK– cell cultures was measured in […]
(§3) containing appropriate dilutions of the test compounds. After 4−5 days of incubation at 37 °C in a CO2-controlled humidified atmosphere, CEM giant (syncytium) cell formation was examined microscopically. The […]
(§4) giant cell formation by 50%.
(§5) Part 10. Primer-extension assays. […]

[3] = tested on: HIV‐2 [ROD)]; experiment: Anti-HIV activity, HIV-2 in thymidine kinase-deficient CEM/TK^− cells; assay type: cell-based
Protocol: as §1, §2, §3, §4, §5

[4] = in vitro; conditions: human
Protocol: All TriPPPro‐compounds 10 and 20, as well as their parent nucleosides and the corresponding NTPs, were evaluated for their antiviral activity (expressed as EC50 values) against HIV‐1 (wild‐type CEM/0 cells) and HIV‐2 (wild‐type CEM/0 cells and thymidine kinase‐deficient (CEM/TK^−) cells) with concomitant determination of cytotoxicity in the same cell line (Table 3 ).

[5] = Chemical hydrolysis in phosphate buffer saline (PBS, pH 7.3); assay type: physicochemical; conditions: PBS pH 7.3, 37 °C, read-out: PBS pH 7.3 t 1/2 (converted)
Protocol: Part 4. Chemical Hydrolysis of TriPPPro-compounds 10 and 20.
Second prepare 1.9 mM hydrolysis […]
Then, aliquots of 50 µL human

[6] = Human immunodeficiency virus 2, CEM-TK(-), read-out: Antiviral activity CEM/TK^− HIV‐2 [ROD)] EC50
[7] = CEM/0 cells (wild-type CD4+ T-cells)
[8] = wild-type CEM/0 cells, mean ±SD n = 2–3
[9] = Human immunodeficiency virus 2, CEM-TK(-), thymidine kinase-deficient CEM/TK^− cells, mean ±SD n = 2–3; read-out: Antiviral activity CEM/TK^− HIV‐2 [ROD)] EC50

Row | Compound | EC50 [1] [nM] | EC50 [2] [nM] | EC50 [3, 6] [nM] | CC50 [4, 7] [nM] | EC50 [1, 8] [nM] | EC50 [2, 8] [nM] | EC50 [3, 9] [nM] | EC50 ([3]; thymidine kinase-deficient CEM/TK^− cells, mean ±SD n = 2–3; read-out: Antiviral activity CEM/TK^− HIV‐2 [ROD)] EC50) [nM] | half-life at 1.9 mM [5] [days] | CC50 [4] [nM]
1 | Cc1cn([C@H]2C[C@H](N=[N+]=[N-])[C@@H](CO[P@](=O)(O)O[P@](=O)(O)OP(=O)(O)O)O2)c(=O)[nH]c1=O [AZTTP, reference compound] | 6.9 ± 8.7 | 5.5 ± 4 | 57900 ± 10900 | > 100000 | – | – | – | – | – | –
2 | Cc1cn([C@H]2C[C@H](N=[N+]=[N-])[C@@H](CO)O2)c(=O)[nH]c1=O [1b (AZT), AZT, reference compound] | – | – | – | > 100000 | 14 ± 8.5 | 3.4 ± 2.1 | > 150000 | > 100000 | – | –
3 | CCCCCCCCCCCCCCCCCCP(=O)(OCc1ccc(OC(=O)CCCC)cc1)OP(=O)(O)OP(=O)(O)OC[C@H]1O[C@@H](n2ccc(=O)[nH]c2=O)C[C@@H]1F (stereo partly shown) [10fz] | – | – | – | 42000 ± 10600 | 64 ± 80 | 39 ± 33 | 160 ± 40 | – | 8.46 | –
4 | CCCCCCCCCCCCCCCCCCP(=O)(OCCCC)OP(=O)(O)OP(=O)(O)OC[C@H]1O[C@@H](n2cc(/C=C/Br)c(=O)[nH]c2=O)C[C@@H]1O (stereo partly shown) [10gx] | > 10000 | > 10000 | 24000 ± 2720 | 51500 ± 17000 | – | – | – | – | > 41.7 | –
5 | CCCCCCCCCCCCCCCCCCP(=O)(OCc1ccc(OC(=O)CCCC)cc1)OP(=O)(O)OP(=O)(O)OC[C@@H]1O[C@H](n2cc(F)c(N)nc2=O)CS1 (stereo partly shown) [10cz] | – | – | – | 66000 ± 35600 | 160 ± 60 | 140 ± 40 | 20 ± 21 | – | > 62.5 | –
6 | CCCCCCCCCCCCCCCCCCOP(=O)(OCc1ccc(OC(=O)CCCC)cc1)OP(=O)(O)OP(=O)(O)OC[C@H]1O[C@@H](n2cc(C)c(=O)[nH]c2=O)C[C@@H]1F (stereo partly shown) [10ey] | – | – | – | 54100 ± 15800 | 300 ± 300 | 780 ± 300 | 1580 ± 1970 | – | > 16.7 | –
7 | Cc1cn([C@H]2C[C@H](F)[C@@H](CO)O2)c(=O)[nH]c1=O [1f (FLT), FLT, reference compound] | – | – | – | > 100000 | 2.5 ± 2.9 | 4.3 ± 1.7 | > 100000 | – | – | –
8 | CCCCCCCCCCCCCCCCCCP(=O)(OCCCC)OP(=O)(O)OP(=O)(O)OC[C@H]1O[C@@H](n2cc(Cl)c(=O)[nH]c2=O)C[C@@H]1F (stereo partly shown) [10dx] | 2590 ± 710 | 2230 ± 1200 | 3210 ± 1120 | 54400 ± 15900 | – | – | – | – | > 83.3 | –
9 | CCCCCCCCCCCCCCCCCCP(=O)(OCc1ccc(OC(=O)CCCC)cc1)OP(=O)(O)OP(=O)(O)OC[C@H]1O[C@@H](n2cc(/C=C/Br)c(=O)[nH]c2=O)C[C@@H]1O (stereo partly shown) [10gz] | – | – | – | 43900 ± 8300 | 7580 ± 2200 | 8010 ± 2810 | 11200 ± 4990 | – | > 62.5 | –
10 | CCCCCCCCCCCCCCCCCCP(=O)(OCCCC)OP(=O)(O)OP(=O)(O)OC[C@H]1O[C@@H](n2cc(C)c(=O)[nH]c2=O)C[C@@H]1F (stereo partly shown) [10ex] | 390 ± 130 | 520 ± 670 | 1010 ± 1140 | 43600 | – | – | – | – | 6.17 | –
11 | CCCCCCCCCCCCCCCCCCOP(=O)(OCC(CC)CCCC)OP(=O)(O)OP(=O)(O)OC[C@H]1O[C@@H](n2cc(C)c(=O)[nH]c2=O)C[C@@H]1N=[N+]=[N-] (stereo partly shown) [10bw] | – | – | – | 45600 | 160 ± 190 | 54 ± 28 | 6100 ± 3000 | – | > 83.3 | –
12 | CCCCCCCCCCCCCCCCCCOP(=O)(OCC(CC)CCCC)OP(=O)(O)OP(=O)(O)OC[C@H]1O[C@@H](n2ccc(=O)[nH]c2=O)C[C@@H]1F (stereo partly shown) [10fw] | – | – | – | 63500 ± 27200 | 370 ± 470 | 140 ± 62 | 110 ± 140 | – | > 83.3 | –
13 | CCCCCCCCCCCCCCCCCCOP(=O)(OCC(CC)CCCC)OP(=O)(O)OP(=O)(O)OC[C@H]1O[C@@H](n2cc(Cl)c(=O)[nH]c2=O)C[C@@H]1F (stereo partly shown) [10dw] | – | – | – | 56100 ± 15800 | 1200 ± 50 | 2200 ± 1240 | > 20000 | – | > 83.3 | –
14 | CCCCCCCCCCCCCCCCCCOP(=O)(OCc1ccc(OC(=O)CCCC)cc1)OP(=O)(O)OP(=O)(O)OC[C@H]1O[C@@H](n2ccc(=O)[nH]c2=O)C[C@@H]1F (stereo partly shown) [10fy] | – | – | – | 43300 ± 5100 | 26 ± 28 | 14 ± 16 | 360 ± 240 | – | 15 | –
15 | CCCCCCCCCCCCCCCCCCP(=O)(OCCCC)OP(=O)(O)OP(=O)(O)OC[C@H]1O[C@@H](n2ccc(=O)[nH]c2=O)C[C@@H]1F (stereo partly shown) [10fx] | 41 ± 44 | 29 ± 7.1 | 150 ± 60 | 67300 ± 33800 | – | – | – | – | > 83.3 | –
16 | CCCCCCCCCCCCCCCCCCP(=O)(OCCCC)OP(=O)(O)OP(=O)(O)OC[C@@H]1O[C@H](n2cc(F)c(N)nc2=O)CS1 (stereo partly shown) [10cx] | 49 ± 45 | 94 ± 23 | 11 | 46000 | – | – | – | – | > 83.3 | –
17 | O=c1[nH]c(=O)n([C@H]2C[C@H](F)[C@@H](CO)O2)cc1Cl [1d (FddClU), FddClU, reference compound] | – | – | – | > 100000 | 820 ± 330 | 1950 ± 2630 | > 100000 | – | – | –
18 | CCCCCCCCCCCCCCCCCCOP(=O)(OCC(CC)CCCC)OP(=O)(O)OP(=O)(O)OC[C@@H]1O[C@H](n2cc(F)c(N)nc2=O)CS1 (stereo partly shown) [10cw] | – | – | – | 64000 ± 23600 | 210 ± 60 | 180 ± 100 | 120 ± 100 | – | > 83.3 | –
19 | Nc1nc(NC2CC2)c2ncn([C@H]3C=C[C@@H](CO)C3)c2n1 [1h (ABC), abacavir, reference compound] | – | – | – | > 100000 | – | – | – | – | – | –
20 | O=c1ccn([C@H]2C[C@H](F)[C@@H](CO)O2)c(=O)[nH]1 [1e (FddU), FddU, reference compound] | – | – | – | > 100000 | 210 ± 20 | 150 ± 17 | > 100000 | – | – | –
21 | O=c1[nH]c(=O)n([C@H]2C[C@H](O)[C@@H](CO)O2)cc1/C=C/Br [1g (BVDU), BVDU, reference compound] | – | – | – | – | > 250000 | > 250000 | > 250000 | – | – | 207000 ± 60000
22 | Nc1nc(=O)n([C@@H]2CS[C@H](CO)O2)cc1F [1c (FTC), FTC, reference compound] | – | – | – | > 100000 | 8.6 ± 5.7 | 20 ± 1 | 10 ± 10 | – | – | –
